# PubChem BioAssay AID2647 (Sanford-Burnham Center for Chemical Genomics, 2010)
# Test system: MDA-MB-435/MDR TRAIL potentiation, ATPlite luminescence, 24 h
# Test: PubChem AID 2647
compound,measurement,setting,value
CSc1nc(-c2ccc(C)cc2)nc(C(Cl)Cl)n1,cytotoxicity with TRAIL,at 10 µM (top of the series),84%
same,cytotoxicity,"compound alone without TRAIL, at 10 µM, stronger effect = higher value",1%
